pIC50: −log10 of the molar value.
Tests used:
[1] = test system: Jurkat E6-1 cells; assay: Fluorescent Calcium Flux Assay (thapsigargin store depletion, FLIPR Calcium 5 dye); type: cell-based; settings: Homo sapiens, Thapsigargin 10µM, 2mM final calcium concentration, read-out: Ca^2+ flux IC50
Experimental: Fluorescent Calcium Flux Assay
Jurkat E6-1 cells were obtained from ATCC (number TIB-152™) and maintained as ATCC recommend; in medium RPMI-1640 with 10% FBS at 37°C and 5% CO2.
Before the assay, Jurkat cells were grown at a density of 2 millions cells/ml in cell culture media (RPMI with 10% FBS) in a T-175 flask at 37°C and 5% CO2.
The day of the assay, cells were harvested by centrifugation (5 minutes at 1500 rpm) and the pellet were suspended in Ca^2+ free assay buffer (HBSS w/o Ca^2+ and Mg ^2+, 20mM Hepes and 1 mM MgCl2, pH 7.4) at a density of 5 million cells/ml.
Calcium depletion was initiated by the addition to the cell suspension of Thapsigarguin at a final assay concentration of 10µM. 20µl of the cellular suspension containing Thapsigargin (100.000 cells/well) were plated into 384 well plates (corning 3711) and incubated at RT for 15 minutes.
Test compounds were diluted in DMSO 100% to get a 10^-2M stock solution and serial dilutions 1/3 were performed in the same solvent. Then, 20µl of test compounds, diluted 75 times in Ca^2+ free assay buffer, were added to the cells and incubated at RT for 1h.
Once this incubation was completed, 5 µl of dye solution (FLIPR Calcium 5 Express Kit, Molecular Devices), prepared as Molecular Devices recommend, were added into the assay plates followed by an extra incubation period of 1 hour at room temperature. After the second incubation period, assay plates were placed into the FLIPR Tetra from Molecular Devices. Fluorescence was measured at a wavelength of 525nm after the dye excitation at 485nm. The initial baseline was measured during 20 seconds, and then 8µl of a 13mM Calcium solution in assay buffer were added (2mM final calcium concentration) except for basal wells, where assay buffer without calcium was added. At this time, changes in the cellular fluorescent were measured for an extra 80 seconds.
Peak and base line were taken for the calculation of the ratio (Peak/Base Line). Total, basal and compound well ratio values were used to calculate %Inhibition.

[2] = test system: Jurkat E6-1 cells; assay: In vitro Assay of Cytokine Release from T Cells (PHA-stimulated IL-2, ELISA); type: cell-based; settings: Homo sapiens, PHA 20 µg/ml, 20 hours, IL-2 by ELISA, read-out: Jurkat IL2 IC50
Experimental: In vitro Assay of Cytokine Release from T Cells
Jurkat E6-1 cells were obtained from American Type Culture Collection (ATCC) and maintained in complete medium with 10% fetal bovine serum (FBS) at 37°C/5%CO2. Cells were plated in 100 µL of Dubelcco's Modified Eagle Medium (DMEM) with 1% FBS in a 96 well plate at a density of 1x10^6 cells/well and 50 µL of test compound was added. Cells were then stimulated by the addition of 50 µL of phytohemagglutinin (PHA) (final concentration 20 µg/ml) and incubated at 37°C/5%CO2 for 20 hours. On the following day, the supernatants were collected and assayed for IL-2 levels by ELISA according to the manufacturer's protocols. The IC50 value was calculated as the concentration at which 50% of secreted IL-2 in vehicle is inhibited.

Structure (SMILES) | pIC50 [1] | pIC50 [2]
Cn1nc(C(F)(F)F)cc1NC(=O)c1cc(-c2c(F)cccc2Cl)[nH]n1 [Example 1, 5-(2-chloro-6-fluorophenyl)-N-[1-methyl-3-(trifluoromethyl)-1H-pyrazol-5-yl]-1H-pyrazole-3-carboxamide] | 6.48 | 6.89
COc1ccc(OC)c(NC(=O)c2cc(-c3c(F)cccc3Cl)[nH]n2)c1 [Example 5, 5-(2-chloro-6-fluorophenyl)-N-(2,5-dimethoxyphenyl)-1H-pyrazole-3-carboxamide] | 6.87 | 7.21
Cn1nc(-c2ccccc2)cc1NC(=O)c1cc(-c2c(F)cccc2Cl)[nH]n1 [Example 6, 5-(2-chloro-6-fluorophenyl)-N-(1-methyl-3-phenyl-1H-pyrazol-5-yl)-1H-pyrazole-3-carboxamide] | 6.25 | 6.39

Source: patent publication EP2848615A1, “New pyrazole derivatives as CRAC channel modulators” (Almirall, S.A., priority 2013, dated 2015)
